# pIC50: −log10 of the molar value.
# Target: ROCK2 (Homo sapiens, UniProt O75116)
# Test: ROCK2 kinase inhibition assay (LABCHIP 3000 Reader, FITC peptide substrate);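 further: rho kinase reaction read by separating phosphorylated from unphosphorylated peptide on chip, with inhibition of kinase activity computed per concentration across a dose-response series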
# Sequence of ROCK2 (O75116 whole entry, species assumed): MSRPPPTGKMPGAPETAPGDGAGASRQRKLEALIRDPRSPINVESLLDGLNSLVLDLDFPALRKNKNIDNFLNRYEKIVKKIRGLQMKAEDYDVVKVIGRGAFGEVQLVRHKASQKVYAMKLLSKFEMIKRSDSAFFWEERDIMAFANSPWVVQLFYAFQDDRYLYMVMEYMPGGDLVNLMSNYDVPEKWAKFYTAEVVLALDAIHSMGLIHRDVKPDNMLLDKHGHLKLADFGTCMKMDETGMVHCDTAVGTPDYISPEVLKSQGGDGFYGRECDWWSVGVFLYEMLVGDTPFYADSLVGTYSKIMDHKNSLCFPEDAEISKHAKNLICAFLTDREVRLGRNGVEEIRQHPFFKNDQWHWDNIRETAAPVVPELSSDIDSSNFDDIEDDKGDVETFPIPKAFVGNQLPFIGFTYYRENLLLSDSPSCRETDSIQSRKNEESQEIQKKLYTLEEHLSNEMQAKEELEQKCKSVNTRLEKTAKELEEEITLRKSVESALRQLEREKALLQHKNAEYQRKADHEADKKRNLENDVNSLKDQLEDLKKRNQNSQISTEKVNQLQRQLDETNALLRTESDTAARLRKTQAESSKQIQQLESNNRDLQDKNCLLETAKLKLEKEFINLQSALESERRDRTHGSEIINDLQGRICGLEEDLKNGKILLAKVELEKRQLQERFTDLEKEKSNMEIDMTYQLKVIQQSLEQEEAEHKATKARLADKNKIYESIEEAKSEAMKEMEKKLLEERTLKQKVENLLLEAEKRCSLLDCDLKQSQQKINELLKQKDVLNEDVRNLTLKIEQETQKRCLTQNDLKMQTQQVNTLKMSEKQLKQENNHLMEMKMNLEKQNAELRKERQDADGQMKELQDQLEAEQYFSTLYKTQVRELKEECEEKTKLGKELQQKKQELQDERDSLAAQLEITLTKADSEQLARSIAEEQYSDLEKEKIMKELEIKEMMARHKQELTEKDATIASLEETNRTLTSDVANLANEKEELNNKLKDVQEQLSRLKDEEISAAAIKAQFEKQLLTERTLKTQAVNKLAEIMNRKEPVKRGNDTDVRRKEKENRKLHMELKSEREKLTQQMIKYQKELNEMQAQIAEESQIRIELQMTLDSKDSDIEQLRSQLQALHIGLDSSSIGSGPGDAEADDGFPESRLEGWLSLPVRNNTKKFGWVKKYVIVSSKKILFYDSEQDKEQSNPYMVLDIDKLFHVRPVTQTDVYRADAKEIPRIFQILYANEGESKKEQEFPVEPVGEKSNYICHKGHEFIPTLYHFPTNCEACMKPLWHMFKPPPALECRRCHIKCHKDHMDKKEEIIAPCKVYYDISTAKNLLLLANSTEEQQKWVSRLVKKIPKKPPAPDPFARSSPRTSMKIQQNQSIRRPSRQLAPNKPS
row,SMILES,pIC50
1,"COc1ccc(C(N)=O)c(OC2CC3(CC(NC(=O)c4cnn5c(C6CC6)c(OCC(C)(C)O)ccc45)C3)C2)c1 (stereo not shown) [Example 211, N-(6-(2-carbamoyl-5-methoxyphenoxy)spiro[3.3]heptan-2-yl)-7-cyclopropyl-6-(2-hydroxy-2-methylpropoxy)pyrazolo[1,5-a]pyridine-3-carboxamide]",> 8.30
2,"COc1ccc(OC2CC3(CC(NC(=O)c4cnn5cc(OCC(C)(C)O)ccc45)C3)C2)c(C(N)=O)c1 (stereo not shown) [Example 212, N-(6-(2-carbamoyl-4-methoxyphenoxy)spiro[3.3]heptan-2-yl)-6-(2-hydroxy-2-methylpropoxy)pyrazolo[1,5-a]pyridine-3-carboxamide]",5.60 to 6.60
3,"COc1ccc(OC2CC3(CC(NC(=O)c4cnn5c(C6CC6)c(OCC(C)(C)O)ccc45)C3)C2)c(C(N)=O)c1 (stereo not shown) [Example 213, N-(6-(2-carbamoyl-4-methoxyphenoxy)spiro[3.3]heptan-2-yl)-7-cyclopropyl-6-(2-hydroxy-2-methylpropoxy)pyrazolo[1,5-a]pyridine-3-carboxamide]",7.30 to 8.30
4,"Cc1cccc(C(N)=O)c1OC1CC2(CC(NC(=O)c3cnn4c(C5CC5)c(OCC(C)(C)O)ccc34)C2)C1 (stereo not shown) [Example 214, N-(6-(2-carbamoyl-6-methylphenoxy)spiro[3.3]heptan-2-yl)-7-cyclopropyl-6-(2-hydroxy-2-methylpropoxy)pyrazolo[1,5-a]pyridine-3-carboxamide]",5.60 to 6.60
5,"Cc1ccc(C(N)=O)c(OC2CC3(CC(NC(=O)c4cnn5cc(OCC(C)(C)O)ccc45)C3)C2)c1 (stereo not shown) [Example 215, N-(6-(2-carbamoyl-5-methylphenoxy)spiro[3.3]heptan-2-yl)-6-(2-hydroxy-2-methylpropoxy)pyrazolo[1,5-a]pyridine-3-carboxamide]",7.30 to 8.30
6,"Cc1ccc(OC2CC3(CC(NC(=O)c4cnn5c(C6CC6)c(OCC(C)(C)O)ccc45)C3)C2)c(C(N)=O)c1 (stereo not shown) [Example 216, N-(6-(2-carbamoyl-4-methylphenoxy)spiro[3.3]heptan-2-yl)-7-cyclopropyl-6-(2-hydroxy-2-methylpropoxy)pyrazolo[1,5-a]pyridine-3-carboxamide]",7.30 to 8.30
7,"Cc1ccc(C(N)=O)c(OC2CC3(CC(NC(=O)c4cnn5c(C6CC6)c(OCC(C)(C)O)ccc45)C3)C2)c1 (stereo not shown) [Example 217, N-(6-(2-carbamoyl-5-methylphenoxy)spiro[3.3]heptan-2-yl)-7-cyclopropyl-6-(2-hydroxy-2-methylpropoxy)pyrazolo[1,5-a]pyridine-3-carboxamide]",> 8.30
8,"Cc1ccc(OC2CC3(CC(NC(=O)c4cnn5cc(OCC(C)(C)O)ccc45)C3)C2)c(C(N)=O)c1 (stereo not shown) [Example 218, N-(6-(2-carbamoyl-4-methylphenoxy)spiro[3.3]heptan-2-yl)-6-(2-hydroxy-2-methylpropoxy)pyrazolo[1,5-a]pyridine-3-carboxamide]",5.60 to 6.60
9,"CC(C)(O)COc1ccc2c(C(=O)NC3CC4(C3)CC(Oc3cc(OC(F)F)ccc3C(N)=O)C4)cnn2c1 (stereo not shown) [Example 219, N-(6-(2-carbamoyl-5-(difluoromethoxy)phenoxy)spiro[3.3]heptan-2-yl)-6-(2-hydroxy-2-methylpropoxy)pyrazolo[1,5-a]pyridine-3-carboxamide]",7.30 to 8.30
10,"CC(C)(O)COc1ccc2c(C(=O)NC3CC4(C3)CC(Oc3cc(Cl)ccc3C(N)=O)C4)cnn2c1 (stereo not shown) [Example 220, N-(6-(2-carbamoyl-5-chlorophenoxy)spiro[3.3]heptan-2-yl)-6-(2-hydroxy-2-methylpropoxy)pyrazolo[1,5-a]pyridine-3-carboxamide]",7.30 to 8.30
11,CC(C)(O)COc1ccc2c(C(=O)NC3CC4(C3)CC(Oc3cc(-n5ccnc5)ccc3C(N)=O)C4)cnn2c1 (stereo not shown) [Example 221],6.60 to 7.30
12,"CC(C)(O)COc1ccc2c(C(=O)NC3CC4(C3)CC(Oc3cc(-c5ncccn5)ccc3C(N)=O)C4)cnn2c1 (stereo not shown) [Example 222, N-(6-(2-carbamoyl-5-(pyrimidin-2-yl)phenoxy)spiro[3.3]heptan-2-yl)-6-(2-hydroxy-2-methylpropoxy)pyrazolo[1,5-a]pyridine-3-carboxamide]",7.30 to 8.30
13,"CC(C)(O)COc1ccc2c(C(=O)NC3CC4(C3)CC(Oc3cc(-n5cccn5)ccc3C(N)=O)C4)cnn2c1 (stereo not shown) [Example 223, N-(6-(2-carbamoyl-5-(1H-pyrazol-1-yl)phenoxy)spiro[3.3]heptan-2-yl)-6-(2-hydroxy-2-methylpropoxy)pyrazolo[1,5-a]pyridine-3-carboxamide]",7.30 to 8.30
14,"CN1CCN(c2ccc(C(N)=O)c(OC3CC4(CC(NC(=O)c5cnn6cc(OCC(C)(C)O)ccc56)C4)C3)c2)CC1 (stereo not shown) [Example 224, N-(6-(2-carbamoyl-5-(4-methylpiperazin-1-yl)phenoxy)spiro[3.3]heptan-2-yl)-6-(2-hydroxy-2-methylpropoxy)pyrazolo[1,5-a]pyridine-3-carboxamide]",7.30 to 8.30
15,"CC(C)(O)COc1ccc2c(C(=O)NC3CC4(C3)CC(Oc3cc(-c5ccncc5)ccc3C(N)=O)C4)cnn2c1 (stereo not shown) [Example 225, N-(6-(2-carbamoyl-5-(pyridin-4-yl)phenoxy)spiro[3.3]heptan-2-yl)-6-(2-hydroxy-2-methylpropoxy)pyrazolo[1,5-a]pyridine-3-carboxamide]",7.30 to 8.30
16,"CC(C)(O)COc1ccc2c(C(=O)NC3CC4(C3)CC(Oc3cc(C5CNC5)ccc3C(N)=O)C4)cnn2c1 (stereo not shown) [Example 226, N-(6-(5-(azetidin-3-yl)-2-carbamoylphenoxy)spiro[3.3]heptan-2-yl)-6-(2-hydroxy-2-methylpropoxy)pyrazolo[1,5-a]pyridine-3-carboxamide]",6.60 to 7.30
17,"CC(C)(O)COc1ccc2c(C(=O)NC3CC4(C3)CC(Oc3cc(N5CCCC5)ccc3C(N)=O)C4)cnn2c1 (stereo not shown) [Example 227, N-(6-(2-carbamoyl-5-(pyrrolidin-1-yl)phenoxy)spiro[3.3]heptan-2-yl)-6-(2-hydroxy-2-methylpropoxy)pyrazolo[1,5-a]pyridine-3-carboxamide]",7.30 to 8.30
18,"CC(C)(O)COc1ccc2c(C(=O)NC3CC4(C3)CC(Oc3cc(-c5ccccc5C(F)(F)F)ccc3C(N)=O)C4)cnn2c1 (stereo not shown) [Example 228, N-(6-((4-carbamoyl-2′-(trifluoromethyl)-[1,1′-biphenyl]-3-yl)oxy)spiro[3.3]heptan-2-yl)-6-(2-hydroxy-2-methylpropoxy)pyrazolo[1,5-a]pyridine-3-carboxamide]",6.60 to 7.30
19,"CC(C)(O)COc1ccc2c(C(=O)NC3CC4(C3)CC(Oc3cc(-c5ccccc5F)ccc3C(N)=O)C4)cnn2c1 (stereo not shown) [Example 229, N-(6-((4-carbamoyl-2′-fluoro-[1,1′-biphenyl]-3-yl)oxy)spiro[3.3]heptan-2-yl)-6-(2-hydroxy-2-methylpropoxy)pyrazolo[1,5-a]pyridine-3-carboxamide]",7.30 to 8.30
20,"CC(C)(O)COc1ccc2c(C(=O)NC3CC4(C3)CC(Oc3cc(N5CCOCC5)ccc3C(N)=O)C4)cnn2c1 (stereo not shown) [Example 230, N-(6-(2-carbamoyl-5-morpholinophenoxy)spiro[3.3]heptan-2-yl)-6-(2-hydroxy-2-methylpropoxy)pyrazolo[1,5-a]pyridine-3-carboxamide]",6.60 to 7.30
21,"CC(C)(O)COc1ccc2c(C(=O)NC3CC4(C3)CC(Oc3cc(-c5cccc(F)n5)ccc3C(N)=O)C4)cnn2c1 (stereo not shown) [Example 231, N-(6-(2-carbamoyl-5-(6-fluoropyridin-2-yl)phenoxy)spiro[3.3]heptan-2-yl)-6-(2-hydroxy-2-methylpropoxy)pyrazolo[1,5-a]pyridine-3-carboxamide]",> 8.30
22,"COC(=O)c1cncc(-c2ccc(C(N)=O)c(OC3CC4(CC(NC(=O)c5cnn6cc(OCC(C)(C)O)ccc56)C4)C3)c2)c1 (stereo not shown) [Example 232, methyl 5-(4-carbamoyl-3-((6-(6-(2-hydroxy-2-methylpropoxy)pyrazolo[1,5-a]pyridine-3-carboxamido)spiro[3.3]heptan-2-yl)oxy)phenyl)nicotinate]",7.30 to 8.30
23,"COCCOC(=O)Nc1ccc(-c2ccc(C(N)=O)c(OC3CC4(CC(NC(=O)c5cnn6cc(OCC(C)(C)O)ccc56)C4)C3)c2)cn1 (stereo not shown) [Example 233, 2-methoxyethyl (5-(4-carbamoyl-3-((6-(6-(2-hydroxy-2-methylpropoxy)pyrazolo[1,5-a]pyridine-3-carboxamido)spiro[3.3]heptan-2-yl)oxy)phenyl)pyridin-2-yl)carbamate]",7.30 to 8.30
24,"CC(C)(O)COc1ccc2c(C(=O)NC3CC4(C3)CC(Oc3cc(-c5ccc(C(C)(C)O)nc5)ccc3C(N)=O)C4)cnn2c1 (stereo not shown) [Example 234, N-(6-(2-carbamoyl-5-(6-(2-hydroxypropan-2-yl)pyridin-3-yl)phenoxy)spiro[3.3]heptan-2-yl)-6-(2-hydroxy-2-methylpropoxy)pyrazolo[1,5-a]pyridine-3-carboxamide]",6.60 to 7.30
25,"COc1cccc(-c2ccc(C(N)=O)c(OC3CC4(CC(NC(=O)c5cnn6cc(OCC(C)(C)O)ccc56)C4)C3)c2)n1 (stereo not shown) [Example 235, N-(6-(2-carbamoyl-5-(6-methoxypyridin-2-yl)phenoxy)spiro[3.3]heptan-2-yl)-6-(2-hydroxy-2-methylpropoxy)pyrazolo[1,5-a]pyridine-3-carboxamide]",7.30 to 8.30
26,"CC(C)(O)COc1ccc2c(C(=O)NC3CC4(C3)CC(Oc3cc(-c5cccc(N)n5)ccc3C(N)=O)C4)cnn2c1 (stereo not shown) [Example 236, N-(6-(5-(6-aminopyridin-2-yl)-2-carbamoylphenoxy)spiro[3.3]heptan-2-yl)-6-(2-hydroxy-2-methylpropoxy)pyrazolo[1,5-a]pyridine-3-carboxamide]",7.30 to 8.30
27,"CC(C)(O)COc1ccc2c(C(=O)NC3CC4(C3)CC(Oc3cc(-c5ccccn5)ccc3C(N)=O)C4)cnn2c1 (stereo not shown) [Example 237, N-(6-(2-carbamoyl-5-(pyridin-2-yl)phenoxy)spiro[3.3]heptan-2-yl)-6-(2-hydroxy-2-methylpropoxy)pyrazolo[1,5-a]pyridine-3-carboxamide]",7.30 to 8.30
28,"CC(C)(O)COc1ccc2c(C(=O)NC3CC4(C3)CC(Oc3cc(-c5cccc(OCC(F)(F)F)c5)ccc3C(N)=O)C4)cnn2c1 (stereo not shown) [Example 238, N-(6-((4-carbamoyl-3′-(2,2,2-trifluoroethoxy)-[1,1′-biphenyl]-3-yl)oxy)spiro[3.3]heptan-2-yl)-6-(2-hydroxy-2-methylpropoxy)pyrazolo[1,5-a]pyridine-3-carboxamide]",6.60 to 7.30

# From patent publication US10829501B2 (BRISTOL-MYERS SQUIBB COMPANY, priority 2016, dated 2020)
